Test system: BLM-induced lung injury
Experiment: Bleomycin (BLM)-induced lung injury model
Format: in vivo
Details: BLM-treated mice, 80 mg/kg orally daily; for fibrosis: collagen fibers, Masson's Trichrome and Picrosirius red staining, semiquantitative: versus vehicle group
Experimental: With regard to the BLM-induced lung injury, we treated mice orally with 80 mg/kg doxophylline, d4-doxophylline, or d7-doxophylline daily (Figure 6a). […] Finally, to investigate the fibrosis, we performed a semiquantitative analysis on the Masson’s Trichrome- and Picrosirius red-stained sections in order to evaluate the presence and the packing of collagen fibers. […] Furthermore, an interesting association of the inflammatory infiltrate and stromal remodeling was observed. Indeed, the decrease in the interstitial inflammatory state led to a reduction of fibrosis in the doxophylline- and d7-treated groups, as can be observed in the respective representative images.
Figure 6 Model of pulmonary fibrosis induced by bleomycin. Doxophylline and d7-doxophylline attenuate BLM-induced structural damage and lung fibrosis in mice. (a) Representative scheme of the BLM-induced lung injury model. (b) Total BAL cellularity of sham mice (not treated) and bleomycin-treated mice (treated or not with 80 mg/kg doxophylline, d4-doxophylline, or d7-doxophylline). Results are reported as mean ± SEM of three independent experiments. (c) Wet/dry lung weight ratio of sham and bleomycin-treated mice (treated or not with 80 mg/kg doxophylline, d4-doxophylline, or d7-doxophylline). Results are reported as mean ± SEM of three independent experiments. (d) MPO activity in lungs of sham and bleomycin-treated mice (treated or not with 80 mg/kg doxophylline, d4-doxophylline and d7-doxophylline). Results are reported as mean ± SEM of three independent experiments. (e) Representative images of H&E staining of sham and bleomycin-treated mice (treated or not with 80 mg/kg doxophylline, d4-doxophylline, or d7-doxophylline). (f, g) Representative images of (f) Masson’s trichrome staining and (g) Picrorius red staining of sham and bleomycin-treated mice (treated or not with 80 mg/kg doxophylline, d4-doxophylline, or d7-doxophylline). p values: *, p < 0.05; **, p < 0.01; ***, p < 0.001; ****, p < 0.0001.
8-week-old male C57Bl/6 mice (Envigo, Indianapolis, USA) weighing between 25 and 30 g were used. Animal care was in compliance with Italian regulations on protection of animals used for experimental purposes and were authorized by the Ministry of Health. We administered BLM (0.02U/50µl) by mouse pharyngeal aspiration, under isoflurane ana esthesia.2 Doxophylline, d4 or d7 ([…], solubilized in 0.9% NaCl solution) or saline treatment (vehicle) was given orally (gavage administration) 1 h before BLM treatment, and then once a day thereafter. Mice were euthanized on day 21 following BLM treatment.
BAL was performed through a tracheal cannula using 1 mL aliquots of ice -cold Ca2+/Mg2+-free phosphate-buffered medium (145 mM NaCl, 5 mM KCl, 1.9 mM NaH 2PO4, 9.35 mM Na2HPO4, and 5.5 mM dextrose, pH 7.4). BAL samples were centrifuged at 500× g for 5 min at 4 °C, and cell pellets were washed an d resuspended in phosphate -buffered medium. BAL cells were enumerated by counting on a Hemocytometer the presence of the trypan blue stain.
Myeloperoxidase (MPO) activity, a marker of polymorphonuclear leukocyte (PMN) infiltration, was determined using MPO Colorimetric Activity Assay Kit (Merck Life Science), according to the manufacturer’s protocol. MPO activity was described as the amount of enzyme degrading 1 μM of peroxide/minute at 37°C and was expressed in U/mg of wet tissue.
Evaluation of fluid content in lungs.
The wet lung weight was calculated after harvesting the lungs, without any extraneous tissue. The lung s were subjected for 72 hours at 100°C and the dry weight was measured. Water content was calculated b y subtracting dry weight from wet weight.
Lungs were fixed with 10% buffered formalin at room temperature for 48h, dehydrated in 70% ethanol, and embedded in paraffin with Diapath automatic processor. Sections (4 μm thick) were stained with hae matoxylin and eosin (H&E) according to standard protocol and samples were mounted in Eukitt (Bio -Optica). To […]

Compound: [2H]C1([2H])OC(Cn2cnc3c2c(=O)n(C)c(=O)n3C)OC1([2H])[2H] [d4-doxophylline]
- accumulation of immune cells in bronchoalveolar lavage (total BAL cellularity): of lesser extent and lacked statistical significance
- histological examination by H&E staining: decrease in the inflammatory interstitial infiltrate
- fibrosis: collagen fibers, Masson's Trichrome and Picrosirius red staining, semiquantitative: slight tendency toward reduction in thickness and packing of collagen fibers

Compound: Cn1c(=O)c2c(ncn2CC2OCCO2)n(C)c1=O [doxophylline]
- MPO activity in lungs: decreased
- accumulation of immune cells in bronchoalveolar lavage (total BAL cellularity): significantly reverted
- histological examination by H&E staining: decrease in the inflammatory interstitial infiltrate
- ratio between wet and dry lung: decreased liquid accumulation
- fibrosis: collagen fibers, Masson's Trichrome and Picrosirius red staining, semiquantitative: slight tendency toward reduction in thickness and packing of collagen fibers

Compound: [2H]C1([2H])OC([2H])(C([2H])([2H])n2cnc3c2c(=O)n(C)c(=O)n3C)OC1([2H])[2H] [d7-doxophylline]
- MPO activity in lungs: decreased
- accumulation of immune cells in bronchoalveolar lavage (total BAL cellularity): significantly reverted
- histological examination by H&E staining: decrease in the inflammatory interstitial infiltrate
- ratio between wet and dry lung: decreased liquid accumulation
- fibrosis: collagen fibers, Masson's Trichrome and Picrosirius red staining, semiquantitative: slight tendency toward reduction in thickness and packing of collagen fibers

Source: PMC9377007, “An Unexpected Deuterium-Induced Metabolic Switch in Doxophylline” (ACS Medicinal Chemistry Letters, 2022)
